Measurements: paper PMC4919066 (PLoS Pathogens, 2016)
pEC50: −log10 of the molar value. Where a name gives a salt, the structure may show the parent alone.

Tests used:
MCMV = MCMV plaque reduction assay in MEFs; format: cell-based, mouse CMV
Method: The pp28-luciferase HCMV Towne and a GCV-resistant pp28-luciferase were used. The recombinant viruses express luciferase under the control of the late CMV gene promoter, pp28. Luciferase expression is activated 48–72 hours post infection (hpi). The recombinant viruses provide a highly-sensitive reporter system which correlates with plaque reduction assay. The Towne HCMV strain (ATCC VR-977) was used for plaque reduction, quantitative reverse transcriptase PCR (qRT-PCR), and immunoprecipitation assays. Human herpes virus strains were: luciferase HSV1- KOS/Dlux/oriS [52] and clinical isolates of HSV2. The clinical isolates were provided by the clinical microbiology laboratory with no identifiers that can link to a specific subject. Murid Herpesvirus (MCMV: ATCC VR-1399) was used for infection of mouse embryonic fibroblasts (MEFs) and mice.
(§1) Human Foreskin Fibroblasts (HFFs) passage 12–16 (ATCC, CRL-2088) and mouse embryonic fibroblasts (MEFs) passage 9–14 (ATCC, CRL-1658) were grown in Dulbecco's Modified Eagle Medium (DMEM) containing 10% fetal bovine serum (FBS) (Gibco, Carlsbad, CA) in a 5% CO2 incubator at 37°C. Infection with HCMV or HSV was performed in HFFs, and infection with mouse CMV was performed in MEFs. For HCMV, cells were seeded in either a 96-well plate or 100 mm culture plates (Corning Costar, Sigma Aldrich) at 0.5 or 2 million cells /plate. Following 90 minute adsorption, media was removed and cells were washed with PBS. Media containing 4% FBS and compounds were added to each well. Infected treated HFFs were collected at 72 hpi and lysates were assayed for luciferase activity using a luciferase assay kit (Promega, Madison, WI) on GloMax-Multi+ Detection System (Promega). In second cycle assays, supernatants were collected from all conditions of the first cycle at 96 hpi and used for infection of fresh HFFs in 96-well plates. Luciferase activity was measured 72 h following second cycle infection. […] After incubation at 37°C for 10 days (for HCMV), 3 days for MCMV or 2 days (for HSV), the overlay was removed and plaques were counted after crystal violet staining.

[1] = tested on: pp28-luciferase HCMV Towne; experiment: Second cycle infection luciferase assay; format: cell-based, Human Cytomegalovirus; conditions: emetine 75 nM
Method: as §1, with “infection. For HSV1-KOS/Dlux/oriS, a luciferase assay was performed at 24 hpi.” for “infection.”

RPS14 = RPS14 (Homo sapiens, UniProt P62263); experiment: RPS14 nuclear localization, confocal microscopy; format: cell-based; conditions: emetine 75 nM, infected high-density cells
Method: Cells were fixed with 3.7% paraformaldehyde for 20 min at room temperature, permeabilized with ice cold methanol for 10 min at -20°C and blocked with 5% bovine serum albumin in 0.5% Tween-20 for 20 min at room temperature. Cells were incubated with primary antibodies at 4°C overnight, washed and incubated with fluorescently-labeled secondary antibodies for 2 h at 37°C. Fluorescence microscopy was performed using a confocal laser scanning microscope (Nikon EZ C1). All images were captured at 60X magnification and processed under identical conditions with constant parameters (including scan speed and excitation and emission wavelengths) using Nikon EZ C1 software. Data analysis (percent nuclear localization) was performed by NIS-Elements software (Nikon) for a minimum of 40 cells in the high-density and 25 cells in the low-density samples from two fields per condition.

MDM2-IE2 = experiment: Co-immunoprecipitation MDM2-IE2 in transfected HEK293 cells; format: cell-based; conditions: IE1/2 transfection, emetine 75 nM or GCV 5 μM for 4 h
Method: HEK-293 cells seeded into 10 cm petri dishes were transfected with HCMV plasmid encoding IE1 and IE2 (pRL45), using Lipofectamine 2000 in serum free medium. After 6 h, 10% FBS containing media was added along with 10 μM of MG132. […] Cells were then harvested to prepare lysates for IP.
Non-infected, infected or emetine-treated HFFs were treated with MG132 (10 μM) for 12h. Cells were harvested after 24 hpi and lysed with IP buffer containing 150 mM NaCl, 50mM Tris pH 7.5, 2 mM EDTA, 0.5% TritonX-100 and 0.5% NP-40-40. 1 mg of lysate was precleared with bead slurry for 30 min. The precleared lysates were incubated with anti-MDM2 (2 μg) antibody overnight. The antibody complexes were isolated using protein A/G beads (Santa Cruz), washed three times with 50% IP buffer. The immunoprecipitate-protein A/G beads were boiled in SDS sample buffer, and the supernatant was analyzed on SDS-PAGE gels after immunoblotting as described previously. 1% of the cell lysate used for IP was loaded on gels as ‘Input’. Confirmatory reverse IPs were performed as described in each experiment. Isotype control antibodies included: rabbit IgG polyclonal, mouse IgG2a kappa and mouse IgG2b kappa monoclonal (Abcam). Mouse monoclonal RPS19 antibody (Abcam) served as an additional negative control for the IPs. Densitometry analysis was performed to determine relative ratio of immunoprecipitated protein to its input level.

HCMV = experiment: Anti-HCMV activity in RPS14 knockdown cells (sh-RPS14); format: cell-based, Human Cytomegalovirus; conditions: emetine 75 nM, luciferase, plaque reduction, viral proteins at 72 hpi
Method: as §1, with “In second cycle assays, supernatants were collected from all conditions of the first cycle at 96 hpi and used for infection of fresh HFFs in 96-well plates.” left out
Human TRC lentiviral shRNA constructs (Sigma-Aldrich) were used for RPS14 knockdown (KD) in HFFs. […] Control HFFs and RPS14 KD HFFs were counted and equal number of cells was plated prior to infection or treatment.

CC[C@H]1CN2CCc3cc(OC)c(OC)cc3[C@@H]2C[C@@H]1C[C@H]1NCCc2cc(OC)c(OC)cc21 [emetine, emetine dihydrochloride hydrate]
MCMV plaque reduction and cell density (MCMV; emetine 75 nM, 0.5 and 2 million cells/plate): cell-density dependent response | pEC50 (MCMV; in Mus musculus, MCMV, plaque assay, read-out: Mean EC50 ± SD): 7.44 | increase in pp28-luciferase activity, second cycle infection, compared to infected control ([1]; 0.5 million cells/plate): 1.5 fold | pp28-luciferase activity, second cycle infection, compared to infected control ([1]; 1 and 2 million cells/plate): near complete inhibition | nuclear localization of RPS14 (RPS14; 24 hpi): 66% | nuclear localization of RPS14 (RPS14; 72 hpi): 11% | interaction between MDM2 and IE2 (MDM2-IE2): significantly decreased | HCMV inhibition in high-density sh-RPS14 cells (HCMV): unable to inhibit HCMV
